pEC50: −log10 of the molar value. Where two headings read alike, the source gives them in different places.
How the values were obtained:
Type in all cases: cell-based
colorectal HCT116 cells [1] = experiment: PrestoBlue cell viability assay, 5 days treatment; conditions: for toxigenic effect of prodrug combined with Pd^0-resins (BOOM conversion): HCT116, prodrug 100 μM + Pd^0-resin 1 mg/mL; for cytotoxic effect / effect on cell viability of prodrug alone: HCT116, without palladium, 5 days, doses up to 1,000 μM (FIG. 18A: 0.1-300 μM)
Experimental: (§1) The toxicities of 5FU and its prodrugs were compared by performing dose-response studies with 5FU and Pro-5FU (0.01 μM to 1 mM). Doses of Pro-5FU and 5FU (0.01, 0.03, 0.1, 0.3, 1, 3, 10, 30 and 100 μM, for both cell lines, and additional doses of 300 μM and 1,000 μM for colorectal HCT116 cells) were incubated with cells for 5 days and cell viability measured to determine the corresponding EC values. Cell viability was analysed by fluoresce intensity nm; nm) after 45 min incubation with PrestoBlue™ Reagent (Life Technologies).
(§2) The toxigenic effect as a result of in situ generation of 5FU in cell culture was determined by incubating colorectal HCT116 cells or pancreatic BXPc-3 cells in tissue culture media containing 0.1% (viv) DMSO and a) Pd^0-resin (1 mg/mL, negative control); b) prodrug (negative, control); or c) Pd^0-resin (1 mg prodrug (reaction assay). Cells incubated in 0.1% (v/v) DMSO in media was used as an untreated cell reference standard (100% viability). A PrestoBlue® cell viability assay as described above was carried out and fluorescent intensities compared to the untreated cell control. Prodrug concentrations were 100 μM for HCT116 cells, and 30 μM for BxPC-3 cells.
(§3) HCT116 and BXPc-3 cells were plated in Dulbecco's Modified Eagle Media (DMEM) and Roswell Park Memorial Institute (RPMI) respectively, supplemented with serum (10% FBS) and L-glutamine (2 mM). Cells were seeded in a 96 wail plate format with a density of either 30.000 cells and incubated for 48 h at 37° C. and 5% CO2 before treatment. Each well was then replaced with fresh media containing: Pd^0-resins (1 mg/ml) (negative control); prodrug (0.01 μM to 1 mM) in DMSO (0.1% v/v) (negative control); 5FU (0.01 μM to 1 mM) in DMSO (0.1% v/v) (positive control); or a combination of Pd^0 resin+prodrug (0.01 μM to 1 mM in 0.1% v/v DMSO). Cells incubated in 0.1% (v/v) DMSO in media were used as untreated cell reference standard (i.e. 100% cell viability). Cells were incubated in the fresh media for 5 days. PrestoBlue cell viability reagent (Life Technologies) (10% v/v) was then added to each well and the plate incubated for 45 min, Fluorescence intensity values (detected using a PerkinElmer EnVision 2101 multilabel reader with excitation filter at 540 nm and emissions filter at 590 nm) were determined relative to the untreated cell control.

pancreatic BxPC-3 cells [2] = experiment: PrestoBlue cell viability assay, 5 days treatment; conditions: for toxigenic effect of prodrug combined with Pd^0-resins (BOOM conversion): BxPC-3, prodrug 30 μM + Pd^0-resin 1 mg/mL; for pEC50: Homo sapiens, 120 h, PrestoBlue
Experimental: as §1, §2, §3

[3] = system: total p53 protein and phosphorylated p53 (Serine 15) in HCT116 cells; experiment: Zeptosens Reverse Phase Protein Microarray analysis; conditions: HCT116, 100 μM, 24 h exposure
Experimental: Post-translational modifications of cancer relevant pathways (including p53) were quantified by antibody-based proteomics across time-series studies using Zeptosens Reverse Phase Protein Microarray analysis.
Cells were plated in their respective supplemented media in a 6 well plate at a density of 240,000 cells/mL and incubated for 46 h. Before adding to the cells, Fro-5FU (100 μM for HCT116) and Pd^0-resins (1 mg/mL) were incubated for 24h to overcome the time relapse required to convert Pro-5FU into 5FU. Cells were treated with the Pd^8 resin+Pro-5FU combination and the controls (as before: untreated cells; Pd^0; Pro-5FU; and 5FU) and incubated for 6 and 24 h. Afterwards, the cells were washed with PBS (2×3 mL) and lysed with Zeptosens CLB1 lysis buffer (90 μl). Samples were analyzed by Zeptosens RPPA using the following specific conditions. Tumor cell lysates were normalized to a uniform protein concentration with spotting buffer CSBL1 (Zeptosens-Bayer) prior to preparing a final 4-fold concentration series of; 0.2; 0.15; 0.1 and […]. […] A weighted linear fit through the 4-fold concentration series was used to calculate relative fluorescence intensity (RFI) value for each sample replicate. […] Abundance levels of total p53 protein and phosphorylated p53 (Serine 15) were plotted as RFI data calculated by the ZeptoView™ 3.1 software.

HCT116 cells = experiment: Real-time confluence study (Incucyte live-cell imaging); conditions: HCT116, 100 μM, 5 days (120 h)
Experimental: FIGS. 9A and 9B show real-time cell confluence study data for Pro-5FU and 5FU (HCT116 cells in FIG. 9A and BXPc-3 cells in FIG. 9B) plotting cell proliferation (indicated by % phase object confluence) against time. Cell proliferation was monitored for 5 days (120 h) using the high-content live-cell imaging system Incucyte™ (Essen BioScience) placed in an incubator (5% CO2, 37° C.), Pro-5FU and 5FU were used at 100 μM and 10 μM for HCT116 and BXPc-3 cells, respectively.
(§4) To study the phenotypic effect of the prodrug catalyst system compared to 5FU, cell proliferation was monitored for 5 days (120 h) using the high-content live-cell imaging system Incucyte™ Essen BioScience) placed in an incubator (5% CO2, 37° C.). Cell confluence analysis and supplementary movies 1 and 2 were carried out using the Incucyte software. Experiments (performed as described above for the dose response cell viability assay) were imaged by time-lapse contrast phase microscopy and cell growth represented as a function of total cell confluence.

BxPC-3 cells = experiment: as above; conditions: BxPC-3, 30 μM, 5 days (120 h)
Experimental: FIGS. 9A and 9B show real-time cell confluence study data for Pro-5FU and 5FU (HCT116 cells in FIG. 9A and BXPc-3 cells in FIG. 9B) plotting cell proliferation (indicated by % phase object confluence) against time. […]
as §4

colorectal HCT116 cells [4] = experiment: Test for competitive inhibition by prodrug (cell viability); conditions: HCT116, 5FU 10 μM + Pro-5FU 0.1-1,000 μM, prodrug/drug ratio up to 100:1
Experimental: (§5) Cells were incubated with 5FU (10 μM for HCT116 cells and 1 μM for BxPC-3 cells) in combination with increasing doses of Pro-5FU (0.1-1,000 μM), and cell viability determined.

pancreatic BxPC-3 cells [5] = experiment: as above; conditions: BxPC-3, 5FU 1 μM + Pro-5FU 0.1-1,000 μM, prodrug/drug ratio up to 100:1
Experimental: as §5

C=CCn1cc(F)c(=O)[nH]c1=O [All-5FU]
toxigenic effect of prodrug combined with Pd^0-resins (BOOM conversion) (colorectal HCT116 cells [1]): No appreciable cytotoxicity | toxigenic effect of prodrug combined with Pd^0-resins (BOOM conversion) (pancreatic BxPC-3 cells [2]): No appreciable cytotoxicity

O=c1[nH]c(=O)n(Cc2ccccc2)cc1F [Bn-5FU]
toxigenic effect of prodrug combined with Pd^0-resins (BOOM conversion) (colorectal HCT116 cells [1]): low levels of toxicity | toxigenic effect of prodrug combined with Pd^0-resins (BOOM conversion) (pancreatic BxPC-3 cells [2]): low levels of toxicity

O=c1[nH]cc(F)c(=O)[nH]1 [Compound 5FU, 5-fluorouracil]
abundance of total and Ser15-phosphorylated p53 [3]: overexpressed | cell growth (confluence) vs time (HCT116 cells): decreased rapidly after a few hours | pEC50 (colorectal HCT116 cells [1]; Homo sapiens, HCT-116, 120 h, HCT116, 5 days incubation, PrestoBlue, read-out: EC50 5FU): 5.70 | pEC50 (pancreatic BxPC-3 cells [2]; BXPc-3, 5 days incubation, read-out: EC50 5FU): 6.87 | pEC50 (pancreatic BxPC-3 cells [2]; BxPC-3, 5 days incubation, read-out: EC50): 6.87 | cell growth (confluence) vs time (BxPC-3 cells): decreased rapidly after a few hours

C#CCn1c(=O)[nH]cc(F)c1=O [Compound 6]
cytotoxic effect / effect on cell viability of prodrug alone (colorectal HCT116 cells [1]): no effect

C#CCn1c(=O)c(F)cn([C@H]2CC(O)[C@@H](CO)O2)c1=O (stereo partly shown) [Compound 11, 3-propergyl-floxuridine]
times less cytotoxic effect on cell viability than floxuridine (colorectal HCT116 cells [1]; HCT116, dose range 0.003-30 μM, without palladium): over 1000 times

O=c1[nH]c(=O)n([C@H]2C[C@H](O)[C@@H](CO)O2)cc1F [FUDR, floxuridine]
times more potent than 5-FU (colorectal HCT116 cells [1]): around 50 times

C#CCn1cc(F)c(=O)[nH]c1=O [Pro-5FU]
abundance of total and Ser15-phosphorylated p53 [3]: no induction | effect of prodrug on cytotoxicity of 5FU (colorectal HCT116 cells [4]): no antagonistic effect | effect of prodrug on cytotoxicity of 5FU (pancreatic BxPC-3 cells [5]): no antagonistic effect | fold reduction in effect, EC50 (Pro-5FU)/EC50 (5FU) (colorectal HCT116 cells [1]; HCT116, prodrug without palladium): greater than 500 fold | cytotoxic effect / effect on cell viability of prodrug alone (colorectal HCT116 cells [1]): no effect | fold reduction in effect versus 5FU (pancreatic BxPC-3 cells [2]; BxPC-3, prodrug without palladium): greater than 700 fold
